According to patent US20130198900A1, “"THIAMINE PYROPHOSPHATE (TPP) RIBOSWITCH MUTANTS PRODUCING VITAMIN B1 ENRICHED FOOD AND FEED CROPS"” (BEN-GURION UNIVERSITY OF THE NEGEV, priority 2010, published 2013):

Legend:
[1] = tested on: AtTHIC promoter and AtTHIC 3' UTR (TPP riboswitch); assay: Dual reporter assay (RFP under AtTHIC promoter, YFP fused to AtTHIC 3' UTR) with exogenous TPP; type: in vivo, Arabidopsis
Method: Arabidopsis thaliana plants (ecotype Columbia, Col-0) were grown on soil in climate rooms (22° C.; 70% humidity; 16/8 hr light/dark for long day conditions and 10/14 hr light/dark for short day conditions). The Atthi1 and Atthic mutants were obtained from the European Arabidopsis Stock Center (NASC; http://arabidopsis.info/; stock ID: N3375; salk—011114 respectively). For experiments involving TPP addition, plants were grown for 14 days in petri dishes on MS media (basal salt mixture; Duchefa, Haarlem, The Netherlands) with 1% sucrose and 1% agar, to which TPP (Sigma, Cat. no. C8754, water soluble) was added up to the indicated concentration.
In order to determine whether the diurnal changes of AtTHIC expression are caused by the light or by the circadian clock, Arabidopsis plants were subjected to a circadian assay (see material and methods above). […] In the growth conditions used herein, the transcripts reached their highest expression level at the beginning of the dark period and their lowest expression level shortly after the beginning of the light period. […] To separate between these two modes of gene control, a dual reporter assay was developed, allowing observing the in vivo activity of both elements. Expression of one reporter gene, YELLOW FLUORESCENT PROTEIN(YFP) was under the control of a constitutive promoter (CaMV-35S) and fused to the AtTHIC 3′ UTR. A second reporter gene, RED FLUORESCENT PROTEIN(RFP) was placed under the regulation of the native AtTHIC promoter and fused to the NOS terminator (FIG. 4). These two reporters were introduced into the Arabidopsis wild type (wt) and thi1 mutant (deficient in thiamine biosynthesis), and their expression was monitored under various conditions. Wild type plants harboring this double reporter genes system were subjected to a circadian assay.
The expression level of the above-described reporter genes (YFP and RFP) in fully grown plants was also determined. […]

[2] = tested on: thiamine biosynthetic enzymes; conditions: Reddick et al., 2001; cited from earlier work
AtTHIC gene = assay: AtTHIC transcript levels (qPCR) under bacimethrin treatment in wt, upf1 and upf3 plants; type: in vivo, Arabidopsis; conditions: 1 mM bacimethrin
Method: Quantitative Real Time PCR (qPCR) gene expression analysis was performed with three biological replicates using gene/variant-specific qPCR oligonucleotide-pairs, designed with Primer Express software (Applied Biosystems). AtUBIQUITIN C (At5g25760) was used as endogenous control for all analyses. Fixed amount of DNAse-treated total RNA was reverse transcribed using AMV Reverse Transcriptase (EurX Ltd., Poland). RT-PCR reactions were tracked on an ABI 7300 instrument (Applied Biosystems) using the PlatinumR SYBR SuperMix (Invitrogen). Each sample was PCR-amplified from the same amount of cDNA template in triplicate reactions. Following an initial step in the thermal cycler for 10 min at 95° C., PCR amplification proceeded for 40 cycles of 15 s at 95° C. and 60 s at 60° C., and completed by melting curve analysis to confirm specificity of PCR products. The baseline and threshold values were adjusted according to manufacturer's instructions.
Given the importance of the AtTHIC gene for thiamine biosynthesis, its mode of regulation, particularly the nature of the high turnover of the intron-spliced variant compared to the intron-retained variant was further examined. Since the spliced variant contains two introns in its 3′ UTR, its instability could be due to the activity of the non-sense mediated decay (NMD) pathway (Kertesz S et al., 2006. Nucleic Acids Res 34, 6147-6157). Thus, the level of this transcript was measured in the background of upf1 and upf3 mutants of Arabidopsis affected in the NMD pathway (Arciga-Reyes L et al., 2006. Plant J 47, 480-489). Transcript level was examined in both normal and low TPP concentrations (FIG. 9). Lowering the plant endogenous TPP levels in these experiments was obtained using 1 mM bacimethrin, an anti-metabolite that inhibits thiamine production (Reddick et al., 2001; ibid). In wt plants as well as in the upf1 and upf3 mutants, bacimethrin treatment (preventing thiamine accumulation) caused the upregulation of the total AtTHIC transcript and of its intron-retention variant (FIGS. 9A and 9B, respectively). […] Thus, the accumulation of this transcript in the upf mutants can be explained by an increase in its stability since the NMD trans-factors are missing. It should also be noticed, that due to the accumulation of the intron-spliced variant under bacimethrin treatment, the total AtTHIC transcripts are more abundant in the upf mutants.

thiamine biosynthesis = assay: Bacimethrin treatment of wild type plants, thiamine and TPP levels by HPLC; type: in vivo, Arabidopsis; conditions: 1 mM in growth medium, wild type plants (FIG. 26)
Method: Bacimethrin is a naturally occurring thiamine anti-metabolite. It is converted to 2′-methoxy-thiamine pyrophosphate by the thiamine biosynthetic enzymes at a rate that is 6 times faster than the rate of conversion of the natural substrate HMP to thiamine pyrophosphate (Reddick J J et al., 2001. Bioorg Med Chem Lett 11, 2245-2248). Since bacimethrin is a thiamine biosynthesis inhibitor in bacteria, its potency in plants was examined.
Samples (100 mg) were harvested from three weeks old plants grown in short day conditions at the end of the light period, and immediately frozen in liquid nitrogen. The plant samples were then grinded followed by the addition of 400 μl of 0.1M HCl, and sonicated in a water bath for 30 min. The resulting extracts were centrifuged at 14,000 rpm (in a regular bench centrifuge) for 10 min. […] Thiochrome derivatives of thiamine, TMP, and TPP were detected by fluorescence at excitation 370 nm and emission 430 nm. Different concentrations of thiamine, thiamine monophosphate (TMP) and thiamine pyrophosphate (TPP) standards were analyzed using the same extraction procedure and chromatographic conditions. […] For quantification of the samples, the peak areas of the samples were compared to the corresponding standard curve.

SMILES	RFP expression directed by AtTHIC promoter ([1]; Atthi1 mutant plants)	YFP expression regulated by AtTHIC 3' UTR ([1]; Atthi1 mutant plants)	reporter gene expression (RFP and YFP) ([1]; wt plants with double reporter gene system, increasing TPP concentrations)	rate of conversion to 2'-methoxy-thiamine pyrophosphate relative to conversion of natural substrate HMP to thiamine pyrophosphate [2]	AtTHIC intron-spliced variant transcript (AtTHIC gene; upf1 and upf3 mutants (FIG. 9C))	AtTHIC intron-spliced variant transcript (AtTHIC gene; wt plants (FIG. 9C))	total AtTHIC transcript (AtTHIC gene; wt plants and upf1, upf3 mutants (FIG. 9A))	AtTHIC intron-retention variant transcript (AtTHIC gene; wt plants and upf1, upf3 mutants (FIG. 9B))	TPP levels (thiamine biosynthesis)	thiamine levels (thiamine biosynthesis)
Cc1ncc(C[n+]2csc(CCO[P@](=O)(O)OP(=O)(O)O)c2C)c(N)n1 [TPP, thiamine pyrophosphate]	did not respond	regulated YFP expression in a TPP dependent manner	Only slight changes	–	–	–	–	–	–	–
COc1ncc(CO)c(N)n1 [bacimethrin]	–	–	–	6 times faster	did not decrease	down-regulation	upregulation	upregulation	reduced	increased
